The target of series [1] is T1, NIS (Homo sapiens, UniProt Q92911).
T1 sequence (Q92911 1-643): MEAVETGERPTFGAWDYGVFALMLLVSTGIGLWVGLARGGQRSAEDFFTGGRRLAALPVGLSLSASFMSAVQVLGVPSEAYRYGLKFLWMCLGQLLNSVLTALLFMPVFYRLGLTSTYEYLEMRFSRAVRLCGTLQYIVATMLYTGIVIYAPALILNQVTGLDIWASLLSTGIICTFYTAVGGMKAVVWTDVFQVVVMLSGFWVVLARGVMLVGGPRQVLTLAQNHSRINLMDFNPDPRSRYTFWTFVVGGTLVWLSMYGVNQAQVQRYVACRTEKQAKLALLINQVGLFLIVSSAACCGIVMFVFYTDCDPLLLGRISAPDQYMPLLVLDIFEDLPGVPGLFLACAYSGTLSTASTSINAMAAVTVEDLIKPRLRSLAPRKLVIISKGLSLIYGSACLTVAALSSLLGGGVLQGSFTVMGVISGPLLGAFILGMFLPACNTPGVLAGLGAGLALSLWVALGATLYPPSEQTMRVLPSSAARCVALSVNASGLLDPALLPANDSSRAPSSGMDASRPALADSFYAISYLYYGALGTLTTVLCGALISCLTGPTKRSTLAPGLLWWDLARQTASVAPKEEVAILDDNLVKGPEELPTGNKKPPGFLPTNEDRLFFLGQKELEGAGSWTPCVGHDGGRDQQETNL
Kind of series: Perchlorate inhibition of NIS-mediated radioiodide uptake in FaDu cells. Type of series: cell-based. The arrangement: The full-length hNIS cDNA was digested from this plasmid and ligated into the pacAd5 CMV K—N pA shuttle vector; expressed in transfected cells. Conditions: 1 mM sodium perchlorate added before radioiodide, Ad-hNIS-transduced FaDu cells. The method, then:
Radioiodide Uptake and Efflux. Cells (2.5×10^5) were seeded in each well of 12-well plates on day 1. Twelve hours later, 40 multiplicity of infection (MOI; the ratio of infectious viral particles to cells) of adenovirus was added to each well. Twenty-four hours later, 2 μCi of sodium [^125I] iodide (New England Nuclear, North Billerica, Mass.) was added to each well, and the plates were incubated for 1 hour at 37° C. […] Medium was then removed, and cells were washed once with PBS. Plates were then exposed overnight on a phosphor imaging screen, and signal intensity was determined with a Typhoon 9400 imager (Amersham Biosciences, Buckinghamshire, England). Signal intensity was compared with that of standards of known activity. […] To determine the rate of [^125I] iodide efflux from cells, uptake was performed as previously described.

Another series has as its system Ad-NIS infected cells. Kind of series: Iodide retention with recombinant LPO during the efflux period. Type of series: cell-based. Conditions: recombinant LPO present during efflux period, 2 hours of efflux. From the text: The inventors are also exploring other novel methods to enhance iodine retention in cells and, to this end, they have examined the effect of lactoperoxidase (LPO) on iodide organification and retention in NIS+ cell populations.

In series [2] the test system is hNIS stable expressing FaDu transfectants. The method, then: In Vivo Tumor Growth. […] Twenty-four hours later, cells were trypsinized, washed, and resuspended in PBS. […] After allowing 48 hours for engraftment of tumor cells, 1 mCi of [^131I] iodide was injected intraperitoneally into each mouse. Second, to assess the effects of genetically targeted radiotherapy on established tumors, 5×10^6 stably transfected NIS-expressing FaDu cells or their parental counterparts were injected subcutaneously into both flanks of athymic mice. The tumors were allowed to grow to an average tumor diameter of 5 mm and then 1 mCi of [^131I] iodide was injected intraperitoneally into each mouse. In both experiments, tumor sizes were recorded in three dimensions every 2 days. Average tumor diameters were determined by taking the cube root of tumor width×length×depth. The experiments were terminated when the average tumor diameter exceeded 10 mm. All animal studies were performed in accordance with the Public Health Service policy on Humane Care and Use of Laboratory Animals, the NIH Guide for the Care and Use of Laboratory Animals, and the Animal elfare Act (7 U.S.C. et seq.); the animal use protocol was approved by the Institutional Animal Care and Use Committee (IACUC) of the University of Iowa.

The test system of series [3] is NIS expressing human tumor xenograft of FaDu carcinoma cells. The note with it: 4.2 Gy delivered to the tumor.
Text: To begin to address this issue, the inventors have established a method to estimate dosimetry based on gamma camera imaging of ^131I uptake and retention using a pinhole collimator. […] Data collected from the pinhole collimator gamma camera imaging has enabled us to calculate doses delivered to tumor xenografts and therefore to perform comparative dosimetry between different isotopes such as ^131I and ^188ReO4—.
For series [4] the following is noted: radionuclide half-life; cited from earlier work.
Series [5] has as its system NIS-expressing F98 gliomas. The note with it: rats bearing NIS-expressing F98 gliomas; cited from earlier work.
In series [6] the test system is NIS-expressing tumor tissue. Kind of series: Gamma camera imaging of 188ReO4 uptake in Ad-NIS injected tumor bearing mouse. Type of series: in vivo. The note with it: 2 hours after systemic administration. An excerpt: As discussed in detail below, the beta particle emitted from ^188Re is more energetic than that of ^131I and can travel a further distance in tissue, thus may be well suited to use in the context of larger tumors that are found in human head and neck cancer.

Series [7] has as its target T1, NIS. Conditions: stably transfected cell lines; cited from earlier work.
The mark [8] stands for this setting: sixty days after [131I] iodide administration.

“Also recorded” adds a separate entry of the source.

In the case of `[Na+].[O-][Cl+3]([O-])([O-])[O-]` [Perchlorate, sodium perchlorate], on NIS [1], the “effect on NIS-mediated [125I] iodide accumulation” value is “inhibited iodide accumulation; also recorded: inhibits NIS-mediated [^125I] iodide uptake”.
Consider lactoperoxidase [LPO], for which, in the series with Ad-NIS infected cells, the “cell-associated iodide during efflux” value is listed as “significantly longer retention times; also recorded: increased levels of cell-associated iodide”.
Regarding `[131I-].[Na+]` [[^131I] iodide, sodium [^131I] iodide], the “tumors with complete response (shrunk beyond the limit of detection)” value in series [2] (NIS-FaDu established tumors (5 mm), 1 mCi [131I] iodide i.p.) is given as “eight of eight”. In addition, in series [2] (mice given 1 mCi [131I] iodide i.p.), the “local adverse effects of radiotherapy” value is “No local adverse effects”. In series [2] (setting [8]), the tumors recurred result is given as “two” and the “tumors remaining in complete remission” value was “six”. For the same molecule, the “tumor outcome at the delivered dose” value in series [3] is on record as “remission of this tumor”.
Take `[O]=[Re](=[O])(=[O])[O-]` [^188ReO4, Perrhenate]: in series [4], the t1/2 was 16.9 h. Further, the “survival versus 131I treatment” value in series [5] was “increased survival”. For the same molecule, in series [6], the “tissue accumulation of 188ReO4-” value was “thyroid, stomach, and NIS-expressing tumor tissue, also display high affinity”. At NIS [7], the “in vitro uptake as compared to iodide” value is “two- to three-fold higher”.

(Values after patent US20060193832A1, “Use of the sodium iodine symporter to effect uptake of iodine” (priority 2005, published 2006).)
